Reference: US5965699A (priority 1996, dated 1999)
Where two headings read alike, the source gives them in different places. Where a SMILES comes first, the peptide text is derived from it. [ ]: non-standard residue; d: D form. Nle = CCCC[C@H](N)C(=O)O; Abu = CC[C@H](N)C(=O)O

Biological target: botox A (Clostridium botulinum, UniProt P0DPI1)
Format: biochemical
Design: Rate (initial rate of peptide hydrolysis) / Rate (initial rate of hydrolysis) In AcBSA: unit not given here
Conditions: for kcat: in 1/s

Chain of botox A (P0DPI1 2-448 limits assumed): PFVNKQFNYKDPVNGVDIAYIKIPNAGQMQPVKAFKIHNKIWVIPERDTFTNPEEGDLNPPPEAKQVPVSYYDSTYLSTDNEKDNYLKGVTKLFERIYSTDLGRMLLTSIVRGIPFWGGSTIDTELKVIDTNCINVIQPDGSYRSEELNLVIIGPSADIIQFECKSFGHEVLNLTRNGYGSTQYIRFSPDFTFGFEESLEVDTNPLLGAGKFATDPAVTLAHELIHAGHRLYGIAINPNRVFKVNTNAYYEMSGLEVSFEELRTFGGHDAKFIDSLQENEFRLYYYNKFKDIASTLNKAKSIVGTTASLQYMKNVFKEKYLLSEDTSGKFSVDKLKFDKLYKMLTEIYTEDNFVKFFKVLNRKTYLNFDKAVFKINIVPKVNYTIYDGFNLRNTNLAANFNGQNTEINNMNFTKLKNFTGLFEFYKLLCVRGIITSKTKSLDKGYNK

Compound | Relative Rate (initial hydrolysis rates relative to peptide [1-17]) | hydrolysis by botox A, described in words | kcat | Km (read-out: Km) | kcat as percent of that for peptide [1-17] | Kcat In AcBSA | Kcat In BSA | Rate (initial rate of hydrolysis) In AcBSA | Rate (initial rate of hydrolysis) In BSA | Rate (initial rate of peptide hydrolysis) | Relative Rate | Km (read-out: Km In AcBSA) | Km (read-out: Km In BSA) | decrease in Km compared with peptide [1-17]
Ac-SNKTRIDEANQAATKML-NH2 [R12A, S N K T R I D E A N Q A A T K M L] | < 0.02 | – | – | – | – | – | – | – | – | – | – | – | – | –
Ac-SNKTRIDEANNRATKML-NH2 [Q11N, S N K T R I D E A N N R A T K M L] | – | slowed but did not eliminate hydrolysis | 19 ± 3 | 750 ± 80 µM | – | – | – | – | – | – | – | – | – | –
Ac-SNKTRINEANQRATKML-NH2 [D7N, S N K T R I N E A N Q R A T K M L] | 0.23 | – | 5.0 ± 0.3 | 820 ± 60 µM | about 10% | – | – | – | – | – | – | – | – | –
CC[C@H](NC(=O)[C@H](CC(=O)O)NC(=O)[C@@H](NC(=O)[C@H](CCCNC(=N)N)NC(=O)[C@H](CC)NC(=O)[C@H](CCCNC(=N)N)NC(=O)[C@H](CC(N)=O)NC(=O)[C@H](CO)NC(C)=O)[C@@H](C)CC)C(=O)N[C@@H](C)C(=O)N[C@@H](CC(N)=O)C(=O)N[C@@H](CCC(N)=O)C(=O)N[C@@H](CCCNC(=N)N)C(=O)N[C@@H](C)C(=O)N[C@H](C(=O)N[C@@H](CCCNC(=N)N)C(=O)N[C@@H](CCSC)C(=O)N[C@@H](CC(C)C)C(N)=O)[C@@H](C)O [peptide 6, S N R B R I D B A N Q R A T R M L] (Ac-SNR[Abu]RID[Abu]ANQRATRML-NH2) | – | more than three times faster | – | – | – | 86 s⁻¹ | 89 s⁻¹ | 25 | 24 | 25.3 ± 0.7 | 3.3 | 400 µM | 520 µM | –
CC[C@H](NC(=O)[C@H](CCCNC(=N)N)NC(=O)[C@H](CCC(N)=O)NC(=O)[C@H](CC(N)=O)NC(=O)[C@H](C)NC(=O)[C@H](CCC(=O)O)NC(=O)[C@H](CC(=O)O)NC(=O)[C@@H](NC(=O)[C@H](CCCNC(=N)N)NC(=O)[C@@H](NC(=O)[C@H](CCCCN)NC(=O)[C@H](CC(N)=O)NC(=O)[C@H](CO)NC(C)=O)[C@@H](C)O)[C@@H](C)CC)C(=O)N[C@H](C(=O)N[C@@H](CCCCN)C(=O)N[C@@H](CCSC)C(=O)N[C@@H](CC(C)C)C(N)=O)[C@@H](C)O [A13B, S N K T R I D E A N Q R B T K M L] (Ac-SNKTRIDEANQR[Abu]TKML-NH2) | .79 | – | 39 ± 2 | 1800 ± 100 µM | – | – | – | – | – | – | – | – | – | –
CCCC[C@H](NC(=O)[C@H](CCCCN)NC(=O)[C@@H](NC(=O)[C@H](C)NC(=O)[C@H](CCCNC(=N)N)NC(=O)[C@H](CCC(N)=O)NC(=O)[C@H](CC(N)=O)NC(=O)[C@H](C)NC(=O)[C@H](CCC(=O)O)NC(=O)[C@H](CC(=O)O)NC(=O)[C@@H](NC(=O)[C@H](CCCNC(=N)N)NC(=O)[C@@H](NC(=O)[C@H](CCCCN)NC(=O)[C@H](CC(N)=O)NC(=O)[C@H](CO)NC(C)=O)[C@@H](C)O)[C@@H](C)CC)[C@@H](C)O)C(=O)N[C@@H](CC(C)C)C(N)=O [M16X, S N K T R I D E A N Q R A T K X L] (Ac-SNKTRIDEANQRATK[Nle]L-NH2) | – | hydrolyzed somewhat faster than the native-sequence peptide | 30 ± 1 | 580 ± 20 µM | – | – | – | – | – | – | – | – | – | –
CC[C@H](NC(=O)[C@H](CCCNC(=N)N)NC(=O)[C@H](CC(N)=O)NC(=O)[C@H](CO)NC(C)=O)C(=O)N[C@@H](CCCNC(=N)N)C(=O)N[C@H](C(=O)N[C@@H](CC(=O)O)C(=O)N[C@@H](CCC(=O)O)C(=O)N[C@@H](C)C(=O)N[C@@H](CC(N)=O)C(=O)N[C@@H](CCC(N)=O)C(=O)N[C@@H](CCCNC(=N)N)C(=O)N[C@@H](C)C(=O)N[C@H](C(=O)N[C@@H](CCCNC(=N)N)C(=O)N[C@@H](CCSC)C(=O)N[C@@H](CC(C)C)C(N)=O)[C@@H](C)O)[C@@H](C)CC [peptide 3, S N R B R I D E A N Q R A T R M L] (Ac-SNR[Abu]RIDEANQRATRML-NH2) | – | – | – | – | – | 58 s⁻¹ | 75 s⁻¹ | 18 | 16 | 15.8 ± 0.8 | 2.1 | 320 µM | 910 µM | –
CC[C@H](NC(=O)[C@H](CCCNC(=N)N)NC(=O)[C@H](CC(N)=O)NC(=O)[C@H](CO)NC(C)=O)C(=O)N[C@@H](CCCNC(=N)N)C(=O)N[C@H](C(=O)N[C@@H](CC(=O)O)C(=O)N[C@@H](CCC(N)=O)C(=O)N[C@@H](C)C(=O)N[C@@H](CC(N)=O)C(=O)N[C@@H](CCC(N)=O)C(=O)N[C@@H](CCCNC(=N)N)C(=O)N[C@@H](C)C(=O)N[C@H](C(=O)N[C@@H](CCCNC(=N)N)C(=O)N[C@@H](CCSC)C(=O)N[C@@H](CC(C)C)C(N)=O)[C@@H](C)O)[C@@H](C)CC [peptide 7, S N R B R I D Q A N Q R A T R M L] (Ac-SNR[Abu]RIDQANQRATRML-NH2) | – | – | – | – | – | 73 s⁻¹ | – | 22 | 14 | 14.1 ± 0.7 | 1.9 | 310 µM | – | –
Ac-SNRTRIDEANQRATRML-NH2 [peptide 2, S N R T R I D E A N Q R A T R M L] | – | slightly faster than peptide 1 | – | – | – | 61 s⁻¹ | 68 s⁻¹ | 16 | 11 | 11.3 ± 0.5 | 1.5 | 530 µM | 1400 µM | –
CC[C@H](NC(=O)[C@H](CC(N)=O)NC(=O)[C@H](C)NC(=O)[C@H](CCC(=O)O)NC(=O)[C@H](CC(=O)O)NC(=O)[C@@H](NC(=O)[C@H](CCCNC(=N)N)NC(=O)[C@@H](NC(=O)[C@H](CCCCN)NC(=O)[C@H](CC(N)=O)NC(=O)[C@H](CO)NC(C)=O)[C@@H](C)O)[C@@H](C)CC)C(=O)N[C@@H](CCCNC(=N)N)C(=O)N[C@@H](C)C(=O)N[C@H](C(=O)N[C@@H](CCCCN)C(=O)N[C@@H](CCSC)C(=O)N[C@@H](CC(C)C)C(N)=O)[C@@H](C)O [Q11B, S N K T R I D E A N B R A T K M L] (Ac-SNKTRIDEAN[Abu]RATKML-NH2) | – | slowed but did not eliminate hydrolysis | 7.7 ± 0.2 | 830 ± 50 µM | – | – | – | – | – | – | – | – | – | –
Ac-SNKTRIDQANQRATKML-NH2 [E8Q, S N K T R I D Q A N Q R A T K M L] | 2.08 | doubling of the rate of hydrolysis | 51 ± 3 | 750 ± 40 µM | – | – | – | – | – | – | – | – | – | about 50%
Ac-SNKTRIDEANQRATKML-NH2 [[1-17], S N K T R I D E A N Q R A T K M L] | – | – | 47 ± 2 | 1700 ± 100 µM | – | 41 s⁻¹ | 47 s⁻¹ | 10 | 8 | 7.6 ± 0.3 | 1.0 | 590 µM | – | –
